Test system: AMPA receptor;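 further: neurons cultured at least 8 to 10 days atop an astrocyte layer in 96-well plates, calcium entry read as the change in Fura2 fluorescence ratio at 340/380 nm excitation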
Test: not given
Conditions: primary culture of rat embryo cerebral cortex nerve cells; Fura2-AM; 2 μM AMPA; 1 μM MK-801

| Compound | IC50 [nM] |
| --- | --- |
| N#Cc1ccccc1-c1cc(-c2ccccn2)cn(-c2cccc([N+](=O)[O-])c2)c1=O [Example 8, 3-(2-Cyanophenyl)-5-(2-pyridyl)-1-(3-nitrophenyl)-1,2-dihydropyridin-2-one] | 100 |
| CS(=O)(=O)Nc1cccc(-n2cc(-c3ccccn3)cc(-c3ccccc3C#N)c2=O)c1 [Example 10, 3-(2-Cyanophenyl)-5-(2-pyridyl)-1-(3-methylsulfonylaminophenyl)-1,2-dihydropyridin-2-one] | 50 |
| CNc1cccc(-n2cc(-c3ccccn3)cc(-c3ccccc3C#N)c2=O)c1 [Example 11, 3-(2-Cyanophenyl)-5-(2-pyridyl)-1-(3-methylaminophenyl)-1,2-dihydropyridin-2-one] | 60 |
| COC(=O)c1cccc(-n2cc(-c3ccccn3)cc(-c3ccccc3C#N)c2=O)c1 [Example 14, 3-(2-Cyanophenyl)-5-(2-pyridyl)-1-(3-methoxycarbonylphenyl)-1,2-dihydropyridin-2-one] | 100 |
| CNC(=O)c1cccc(-n2cc(-c3ccccn3)cc(-c3ccccc3C#N)c2=O)c1 [Example 15, 3-(2-Cyanophenyl)-5-(2-pyridyl)-1-(3-methylaminocarbonylphenyl)-1,2-dihydropyridin-2-one] | 50 |
| N#Cc1ccccc1-c1cc(-c2ccccn2)cn(-c2cccc(C=O)c2)c1=O [Example 20, 3-(2-Cyanophenyl)-5-(2-pyridyl)-1-(3-formylphenyl)-1,2-dihydropyridin-2-one] | 40 |
| N#Cc1ccccc1-c1cc(-c2ccccn2)cn(-c2cccc(CO)c2)c1=O [Example 21, 3-(2-Cyanophenyl)-5-(2-pyridyl)-1-(3-hydroxymethylphenyl)-1,2-dihydropyridin-2-one] | 30 |
| N#CCc1cccc(-n2cc(-c3ccccn3)cc(-c3ccccc3C#N)c2=O)c1 [Example 22, 3-(2-Cyanophenyl)-5-(2-pyridyl)-1-(3-cyanomethylphenyl)-1,2-dihydropyridin-2-one] | 60 |
| CSc1ccc(-n2cc(-c3ccccn3)cc(-c3ccccc3C#N)c2=O)cc1 [Example 26, 3-(2-Cyanophenyl)-5-(2-pyridyl)-1(4-methylthiophenyl)-1,2-dihydropyridin-2-one] | 20 |
| CS(=O)(=O)c1ccc(-n2cc(-c3ccccn3)cc(-c3ccccc3C#N)c2=O)cc1 [Example 27, 3-(2-Cyanophenyl)-5-(2-pyridyl)-1-(4-methylsulfonylphenyl)-1,2-dihydropyridin-2-one] | 50 |
| N#Cc1ccccc1-c1cc(-c2ccccn2)c(=O)n(-c2ccccc2)c1 [Example 33, 3-(2-Pyridyl)-5-(2-cyanophenyl)-1-phenyl-1,2-dihydropyridin-2-one] | 700 |
| COc1ccc(-c2cc(-c3ccccn3)cn(-c3ccccc3)c2=O)cn1 [Example 77, 3-(2-Methoxy-5-pyridyl)-5-(2-pyridyl)-1-phenyl-1,2-dihydropyridin-2-one] | 20 |
| N#Cc1cccnc1-c1cc(-c2ccccc2)cn(-c2cccnc2)c1=O [Example 79, 3-(3-Cyano-2-pyridyl)-5-phenyl-1-(3-pyridyl)-1,2-dihydropyridin-2-one] | 2600 |
| COc1ccc(-n2cc(-c3ccccn3)cc(-c3cccnc3F)c2=O)cn1 [Example 86, 3-(2-Fluoro-3-pyridyl)-5-(2-pyridyl)-1-(2-methoxy-5-pyridyl)-1,2-dihydropyridin-2-one] | 1900 |
| N#Cc1ccccc1-c1cc(-c2ccccn2)cn(-c2cccc(F)c2)c1=O [Example 92, 3-(2-Cyanophenyl)-5-(2-pyridyl)-1-(3-fluorophenyl)-1,2-dihydropyridin-2-one] | 50 |
| COc1cccc(-n2cc(-c3ccccn3)cc(-c3ccccc3C#N)c2=O)c1 [Example 96, 3-(2-Cyanophenyl)-5-(2-pyridyl)-1-(3-methoxyphenyl)-1,2-dihydropyridin-2-one] | 60 |
| N#Cc1ccccc1-c1cc(-c2ccccn2)cn(-c2cccc(Cl)c2)c1=O [Example 102, 3-(2-Cyanophenyl)-5-(2-pyridyl)-1-(3-chlorophenyl)-1,2-dihydropyridin-2-one] | 20 |
| Cc1cccc(-n2cc(-c3ccccn3)cc(-c3ccccc3C#N)c2=O)c1 [Example 103, 3-(2-Cyanophenyl)-5-(2-pyridyl)-1-(3-tolyl)-1,2-dihydropyridin-2-one] | 30 |
| N#Cc1ccccc1-c1cc(-c2ccccn2)cn(-c2ccsc2)c1=O [Example 105, 3-(2-Cyanophenyl)-5-(2-pyridyl)-1-(thiophen-3-yl)-1,2-dihydropyridin-2-one] | 30 |
| N#Cc1ccccc1-c1cc(-c2ccccn2)cn(-c2ccoc2)c1=O [Example 106, 3-(2-Cyanophenyl)-5-(2-pyridyl)-1-(3-furyl)-1,2-dihydropyridin-2-one] | 70 |
| Cc1ccc(-n2cc(-c3ccccn3)cc(-c3ccccc3C#N)c2=O)cc1 [Example 107, 3-(2-Cyanophenyl)-5-(2-pyridyl)-1-(4-tolyl)-1,2-dihydropyridin-2-one] | 70 |
| N#Cc1ccccc1-c1cc(-c2ccccn2)cn(-c2ccc(C(F)(F)F)cc2)c1=O [Example 108, 3-(2-Cyanophenyl)-5-(2-pyridyl)-1-(4-trifluoromethylphenyl)-1,2-dihydropyridin-2-one] | 30 |
| COc1ccc(-n2cc(-c3ccccn3)cc(-c3ccccc3C#N)c2=O)cn1 [Example 109, 3-(2-Cyanophenyl)-5-(2-pyridyl)-1-(2-methoxypyridin-5-yl)-1,2-dihydropyridin-2-one] | 10 |
| COc1cncc(-n2cc(-c3ccccn3)cc(-c3ccccc3C#N)c2=O)c1 [Example 118, 3-(2-Cyanophenyl)-5-(2-pyridyl)-1-(3-methoxypyridin-5-yl)-1,2-dihydropyridin-2-one] | 100 |
| O=c1c(-c2ccc(Cl)cc2Cl)cc(-c2ccccn2)cn1-c1cccnc1 [Example 131, 3-(2,4-Dichlorophenyl)-5-(2-pyridyl)-1-(3-pyridyl)-1,2-dihydropyridin-2-one] | 37000 |
| N#Cc1ccccc1-c1cc(-c2ccccn2)cn(-c2cccc(O)c2)c1=O [Example 315, 3-(2-Cyanophenyl)-1-(3-hydroxyphenyl)-5-(2-pyridyl)-1,2-dihydropyridin-2-one] | 80 |
| O=c1c(C2C3CC4CC(C3)CC2C4)cc(-c2ccccn2)cn1-c1ccccc1 (stereo not shown) [Example 387, 3-(2-Adamantyl)-5-(2-pyridyl)-1-phenyl-1,2-dihydropyridin-2-one] | 7000 |
| CC1=NN=C(c2ccc(N)cc2)c2cc3c(cc2C1)OCO3 [GYKI 52466, reference compound] | 9020 |

Same assay, conditions: suppression of AMPA-induced calcium influx into nerve cells; Table 2

| Compound | IC50 [nM] |
| --- | --- |
| COc1ccc(-c2cc(-c3ccccc3C#N)c(=O)n(-c3ccccc3)c2)cn1 [Example 200, 3-(2-Cyanophenyl)-5-(2-methoxypyridin-5-yl)-phenyl-1,2-dihydropyridin-2-one] | 2000 |
| N#Cc1ccccc1-c1cc(-c2ccccn2)cn(-c2ccc(N)cc2)c1=O [Example 215, 1-(4-Aminophenyl)-3-(2-cyanophenyl)-5-(2-pyridyl)-1,2-dihydropyridin-2-one] | 100 |
| N#Cc1ccccc1-c1cc(-c2ccccn2)cn(-c2cccc(OCCCN3CCCCC3)c2)c1=O [Example 244, 3-(2-Cyanophenyl)-1-(3-piperidinopropoxyphenyl)-5-(2-pyridyl)-1,2-dihydropyridin-2-one] | 1800 |
| O=c1c(-c2cccnc2F)cc(-c2ncccn2)cn1-c1cccnc1 [Example 263, 3-(2-Fluoropyridin-3-yl)-1-(3-pyridyl)-5-(2-pyrimidinyl)-1,2-dihydropyridin-2-one] | 1000 |
| O=c1c(-c2cccc3ccccc23)cc(-c2ccccn2)cn1-c1cccnc1 [Example 279, 3-(1-Naphthyl)-5-(2-pyridyl)-1-(3-pyridyl)-1,2-dihydropyridin-2-one] | 3710 |
| O=c1c(-c2cc3ccccc3n2S(=O)(=O)c2ccccc2)cc(-c2ccccn2)cn1-c1ccccc1 [Example 293, 3-(1-Benzenesulfonylindol-2-yl)-1-phenyl-5-(2-pyridyl)-1,2-dihydropyridin-2-one] | 3300 |

Test system: male mice of ddy strain
Test: Anticonvulsant action induced by AMPA (Test Example 2)
Type: in vivo
Conditions: 25 mg/kg orally, AMPA 2 nmole/5 μl/minute/mouse into lateral ventricle 30 minutes or 1 hour after dosing
Protocol: A test compound was suspended in a 0.5% methyl cellulose solution or in sesame oil and was orally administered (25 mg/kg) to male mice of ddy strain. After 30 minutes or 1 hour from the oral administration, AMPA was continuously injected (2 nmole/5 μl/minute/mouse) into lateral ventricle to induce the convulsions. The effect was judged by a time-extending action until the convulsion takes place by a continuous injection of AMPA.

| Compound | Anticonvulsant action (time-extending action until convulsion by continuous AMPA injection) |
| --- | --- |
| O=c1c(-c2cccnc2Cl)cc(-c2ccccn2)cn1-c1ccccc1 [Example 4, 3-(2-Chloro-3-pyridyl)-5-(2-pyridyl)-1-phenyl-1,2-dihydropyridin-2-one] | significant anticonvulsant action |
| N#Cc1ccccc1-c1cc(-c2ccccc2)cn(-c2cccnc2)c1=O [Example 47, 3-(2-Cyanophenyl)-5-phenyl-1-(3-pyridyl)-1,2-dihydropyridin-2-one] | significant anticonvulsant action |
| O=c1c(-c2ccccc2Cl)cc(-c2ccccn2)cn1-c1ccccc1 [Example 57, 3-(2-Chlorophenyl)-5-(2-pyridyl)-1-phenyl-1,2-dihydropyridin-2-one] | significant anticonvulsant action |
| O=c1c(-c2ccccc2)cc(-c2ccccn2)cn1-c1ccccc1 [Example 61, 3-Phenyl-5-(2-pyridyl)-1-phenyl-1,2-dihydropyridin-2-one] | significant anticonvulsant action |
| COc1ccccc1-n1cc(-c2ccccn2)cc(-c2ccccc2C#N)c1=O [Example 126, 3-(2-Cyanophenyl)-5-(2-pyridyl)-1-(2-methoxyphenyl)-1,2-dihydropyridin-2-one] | significant anticonvulsant action |
| O=c1c(-c2ccccc2Cl)cc(-c2ccccn2)cn1-c1cccnc1 [Example 128, 3-(2-Chlorophenyl)-5-(2-pyridyl)-1-(3-pyridyl)-1,2-dihydropyridin-2-one] | significant anticonvulsant action |

Reference: patent US7759367B2, “Pharmaceutical compositions and their uses” (Eisai R&D Management Co., Ltd., priority 2001, dated 2010)
